Results published in patent US9273043B2, “TRPV1 antagonists including dihydroxy substituent and uses thereof” (Purdue Pharma L.P., priority 2011, dated 2016).

Tests used:
[1] = biological target: T1, human TRPV1 (Homo sapiens (Human), UniProt Q8NER1); assay: Capsaicin-based assay, Protocol 2, TRPV1/CHO cells (hCAP-CHO), Fluo-4 FLIPR; format: cell-based; details: 100 nM capsaicin, mean ± SEM
Summary of the method: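 CHO cells stably transfected with human TRPV1 cDNA (G418-selected) were loaded with 3 μM Fluo-4 for 1 h, washed, then read on FLIPR with 15 s baseline before additions. Compound tested at final 100 μM to 1.5625 μM against capsaicin stimulation; calcium fluorescence time course curve-fitted.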

[2] = biological target: T1, human TRPV1; assay: pH-based assay, Protocol 2, TRPV1/CHO cells (hpH-CHO), Fura-2 Ca2+ influx; format: cell-based; details: pH 5.0-5.1 (H2SO4), mean ± SEM

T1 sequence (Q8NER1 whole entry, looked up): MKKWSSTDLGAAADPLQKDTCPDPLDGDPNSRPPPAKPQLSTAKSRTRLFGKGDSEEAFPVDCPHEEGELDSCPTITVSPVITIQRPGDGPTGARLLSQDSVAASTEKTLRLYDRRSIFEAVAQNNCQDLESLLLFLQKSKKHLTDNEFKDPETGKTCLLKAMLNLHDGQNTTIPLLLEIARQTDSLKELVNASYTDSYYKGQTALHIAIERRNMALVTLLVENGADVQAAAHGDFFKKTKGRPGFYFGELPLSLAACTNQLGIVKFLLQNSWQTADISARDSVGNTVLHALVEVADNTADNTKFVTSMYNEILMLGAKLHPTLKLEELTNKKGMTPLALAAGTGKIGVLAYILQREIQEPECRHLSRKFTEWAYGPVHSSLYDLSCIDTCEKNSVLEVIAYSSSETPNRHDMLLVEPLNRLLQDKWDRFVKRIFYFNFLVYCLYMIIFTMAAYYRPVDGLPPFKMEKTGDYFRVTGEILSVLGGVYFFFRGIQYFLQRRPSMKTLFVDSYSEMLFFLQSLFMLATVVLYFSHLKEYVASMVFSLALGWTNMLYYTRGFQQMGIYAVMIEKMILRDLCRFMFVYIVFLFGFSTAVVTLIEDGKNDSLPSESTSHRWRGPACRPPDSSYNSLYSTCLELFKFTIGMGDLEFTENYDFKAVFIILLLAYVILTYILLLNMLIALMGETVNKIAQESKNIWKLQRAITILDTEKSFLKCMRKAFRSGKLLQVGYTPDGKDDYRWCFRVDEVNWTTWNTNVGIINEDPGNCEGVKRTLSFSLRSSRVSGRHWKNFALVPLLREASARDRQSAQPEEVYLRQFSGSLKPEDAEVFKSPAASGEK

SMILES | IC50 [1] | IC50 [2]
C[C@H]1CN(c2ncc([C@H](O)CO)cc2F)CCN1C(=O)Nc1nc2ccccc2s1 [A122(a), (S)—N-(benzo[d]thiazol-2-yl)-4-(5-((S)-1,2-dihydroxyethyl)-3-fluoropyridin-2-yl)-2-methylpiperazine-1-carboxamide] | 177 ± 69 nM | 98 ± 27 nM
C[C@@H]1CN(C(=O)Nc2nc3ccc(F)cc3s2)CCN1c1ncc([C@H](O)CO)cc1F [A125(b), (R)-4-{5-[(S)-1,2-dihydroxyethyl]-3-fluoropyridin-2-yl}-N-(6-fluorobenzo[d]thiazol-2-yl)-3-methylpiperazine-1-carboxamide] | 112 ± 32 nM | 81 ± 13 nM
Cc1ccc2nc(NC(=O)N3CCN(c4ncc([C@H](O)CO)cc4F)C[C@@H]3C)sc2c1 [A126(a), (S)-4-(5-((S)-1,2-dihydroxyethyl)-3-fluoropyridin-2-yl)-2-methyl-N-(6-methylbenzo[d]thiazol-2-yl)piperazine-1-carboxamide] | 40.2 ± 11 nM | 12.2 ± 5.9 nM
C[C@H]1CN(c2ncc([C@H](O)CO)cc2F)CCN1C(=O)Nc1nc2cc(F)c(F)cc2s1 [A158(a), (S)—N-(5,6-difluorobenzo[d]thiazol-2-yl)-4-(5-((S)-1,2-dihydroxyethyl)-3-fluoropyridin-2-yl)-2-methylpiperazine-1-carboxamide] | 62.4 ± 13.8 nM | 17.1 nM
C[C@@H]1CN(C(=O)Nc2nc3cc(F)c(F)cc3s2)CCN1c1ncc([C@H](O)CO)cc1F [AE, (R)—N-(5,6-difluorobenzo[d]thiazol-2-yl)-4-{5-[(S)-1,2-dihydroxyethyl]-3-fluoropyridin-2-yl}-3-methylpiperazine-1-carboxamide] | 68 ± 17 nM | 40.8 ± 3.2 nM
C[C@H](O)[C@@H](O)c1cnc(N2CCN(C(=O)Nc3nc4cc(F)c(F)cc4s3)C[C@H]2C)c(F)c1 [B158(j), (R)—N-(5,6-difluorobenzo[d]thiazol-2-yl)-4-{5-[(1S,2S)-1,2-dihydroxypropyl]-3-fluoropyridin-2-yl}-3-methylpiperazine-1-carboxamide] | 49 ± 10 nM | 136 ± 20 nM
C[C@H](O)[C@@H](O)c1cnc(N2CCN(C(=O)Nc3nc4ccc(F)cc4s3)CC2)c(Cl)c1 [C4(r), 4-{3-Chloro-5-[(1S,2S)-1,2-dihydroxypropyl]pyridin-2-yl}-N-(6-fluorobenzo[d]thiazol-2-yl)piperazine-1-carboxamide] | 42.8 ± 2 nM | 17.4 ± 1.2 nM
C[C@H](O)[C@@H](O)c1cnc(N2CCN(C(=O)Nc3nc4ccc(F)cc4s3)CC2)c(F)c1 [C125(r), 4-(5-((1S,2S)-1,2-dihydroxypropyl)-3-fluoropyridin-2-yl)-N-(6-fluorobenzo[d]thiazol-2-yl)piperazine-1-carboxamide] | 99 ± 24 nM | 69 ± 3 nM
Cc1ccc2nc(NC(=O)N3CCN(c4ncc([C@H](O)[C@H](C)O)cc4F)CC3)sc2c1 [C126(r), 4-[5-((1S,2S)-1,2-Dihydroxy-propyl)-3-fluoro-pyridin-2-yl]piperazine-1-carboxylic acid (6-methyl-benzothiazol-2-yl)-amide] | 71 ± 20 nM | 67 ± 12 nM
Cc1cc2nc(NC(=O)N3CCN(c4ncc([C@H](O)[C@H](C)O)cc4F)CC3)sc2cc1C [C170(r), 4-(5-((1S,2S)-1,2-dihydroxypropyl)-3-fluoropyridin-2-yl)-N-(5,6-dimethylbenzo[d]thiazol-2-yl)piperazine-1-carboxamide] | 89 ± 34 nM | 32.8 ± 8.1 nM
